Columns and labels:
Assay type in all cases: cell-based
[1] = test system: human adipose-derived mesenchymal stem cells (AD-MSCs); assay: Western blotting of adipogenesis-associated signaling molecules (phosphorylation ratios); details: 160 μM, day 14, Western blotting
Protocol: After inducing adipogenesis for 14 days by treating human adipose-derived mesenchymal stem cells (AD-MSCs) with 160 μM nervonic acid, the expression of adipogenesis-associated signaling molecules at the protein level was compared using Western blotting.
More specifically, protein for Western blotting was extracted using the same method as the extraction method described above, and Western blotting was performed using the primary antibodies listed in Table 3 below.

[2] = test system: human umbilical cord-derived mesenchymal stem cells (WJ-MSCs); assay: Adipogenesis induction, Oil Red O staining quantification
Protocol: (§1) Specifically, for Oil Red O (Sigma-Aldrich, St. Louis, MO, USA) staining, after completion of differentiation, the culture medium was removed from each well of the plate, followed by washing twice with 1×PBS and then fixing with 4% paraformaldehyde (PFA) for 10 minutes. Washing three times with deionized water and then washing once with 60% isopropyl alcohol were performed. The Oil Red O stock solution was diluted with deionized water in a ratio of 3:2 to prepare an Oil Red O working solution, 1 ml of which was then added to each well of the plate followed by reaction at room temperature for 30 minutes. After washing once with 60% isopropyl alcohol and washing three times with deionized water, the red-stained oil droplets were observed and photographed under a microscope, and the results are shown in FIG. 4a.
(§2) Specifically, the stained oil droplets were dissolved in 100% isopropyl alcohol, and 100 μl of the result was transferred to each well of the 96-well plate, followed by measurement using a microplate reader (absorbance at 540 nm). […]
(§3) After inducing adipogenesis for 7, 14, and 21 days by treating human umbilical cord-derived mesenchymal stem cells (WJ-MSCs) with nervonic acid, the oil droplets stained by Oil Red O staining are shown in FIG. 10a, and the results of quantification of the stained oil droplets are shown in FIG. 10b.

[3] = test system: human adipose-derived mesenchymal stem cells (AD-MSCs); assay: Western blotting of adipogenesis markers at the protein level; details: 160 μM, day 14, Western blotting
Protocol: After inducing adipogenesis for 14 days by treating human adipose-derived mesenchymal stem cells (AD-MSCs) with 160 μM nervonic acid, the expression of adipogenesis markers at the protein level was compared using Western blotting.
Specifically, protein for Western blotting was extracted from mesenchymal stem cells with adipogenesis completed using RIPA lysis buffer, and Western blotting was performed using the primary antibodies listed in Table 2 below.

[4] = test system: human bone marrow-derived mesenchymal stem cells (BM-MSCs); assay: Adipogenesis induction, Oil Red O staining quantification; details: 160 μM, days 7 and 14
Protocol: as §1, §2
After inducing adipogenesis for 7, 14, and 21 days by treating human bone marrow-derived mesenchymal stem cells (BM-MSC) with nervonic acid, the oil droplets stained by Oil Red O staining are shown in FIG. 11a, and the results of quantification of the stained oil droplets are shown in FIG. 11b.

[5] = test system: human adipose-derived mesenchymal stem cells (AD-MSCs); assay: Adipogenesis induction, Oil Red O staining and quantification (absorbance at 540 nm); details: for Oil Red O stained oil droplets, fold increase compared to DMSO-treated control group: 160 μM, three lots of AD-MSCs
Protocol: To determine the appropriate concentration of nervonic acid having excellent efficacy in promoting adipogenesis, adipogenesis was induced for 7 days by treating human adipose-derived mesenchymal stem cells with nervonic acid at different concentrations (0, 40, 80, 120, 160, 200, 240, 280 μM), followed by Oil Red O staining to confirm the stained oil droplets.
as §1
After inducing adipogenesis for 7 days by treating human adipose-derived mesenchymal stem cells with nervonic acid at different concentrations (0, 40, 80, 120, 160, 200, 240, 280 μM), the results of quantification of the oil droplets stained by Oil Red O staining are shown in FIG. 4b.
Specifically, the stained oil droplets were dissolved in 100% isopropyl alcohol, and 100 μl of the result was transferred to each well of the 96-well plate, followed by measurement using a microplate reader (absorbance at 540 nm). […] Nervonic acid (Sigma-Aldrich, St. Louis, MO, USA) was dissolved in DMSO and then stored at −80° C. before use.
Adipogenesis was induced for 7 days by treating a total of three lots of human adipose-derived mesenchymal stem cells (AD-MSCs) with 160 μM nervonic acid, followed by observation of the oil droplets stained by Oil Red O staining, and the results are shown in FIG. 5a.

[6] = test system: human adipose-derived mesenchymal stem cells; assay: Observation of oil droplet formation after 72 hours of culture with nervonic acid; details: 72 hours treatment, different concentrations
Protocol: Human adipose-derived mesenchymal stem cells were treated with nervonic acid at different concentrations for 72 hours and cultured, after which the concentration at which oil droplets were generated was observed.

[7] = test system: human adipose-derived mesenchymal stem cells; assay: Cell viability / cytotoxicity by Cell Counting Kit-8 (CCK-8); details: 0-280 μM nervonic acid, vs DMSO control
Protocol: The isolated human adipose-derived mesenchymal stem cells were treated with nervonic acid at different concentrations and cultured for 72 hours, after which cytotoxicity was measured. Specifically, Cell Counting Kit-8 (CCK-8, Dojindo, Tokyo, Japan) was used, and 1×10^3/well of cells were plated on a 96-well plate, stabilized for 24 hours, and then treated with nervonic acid at different concentrations (0, 40, 80, 120, 160, 200, 240, 280 μM), including the control group (DMSO), and cell viability was measured.
Before confirming the efficacy of nervonic acid to promote adipogenesis, cell viability was reconfirmed by treating cells with nervonic acid at various concentrations for 7 days. The specific method is the same as the method described above, and cell viability was measured by treatment with nervonic acid at different concentrations (0, 40, 80, 120, 160, 200, 240, 280 μM), including the control group (DMSO).

[8] = test system: human umbilical cord blood-derived mesenchymal stem cells (UCB-MSCs); assay: Adipogenesis induction, Oil Red O staining quantification
Protocol: as §1, §2
as §3, with “cord blood-derived” for “cord-derived”, “(UCB-MSCs)” for “(WJ-MSCs)”, “8a,” for “10a,”, “8b.” for “10b.”

[9] = test system: human adipose-derived mesenchymal stem cells (AD-MSCs); assay: qRT-PCR of adipogenesis markers at the mRNA level (2^-ΔΔCt); details: 160 μM, day 14, qRT-PCR
Protocol: After inducing adipogenesis for 14 days by treating human adipose-derived mesenchymal stem cells (AD-MSCs) with 160 μM nervonic acid, the gene expression of adipogenesis markers at the mRNA level was compared using qRT-PCR.
Specifically, RNA for qRT-PCR was extracted from mesenchymal stem cells with adipogenesis completed using TRIZOL from Invitrogen according to the method provided by the vendor, and cDNA was synthesized using SuperScript™ IV Reverse Transcriptase from Invitrogen. qRT-PCR was performed using the primers listed in Table 1 below, and the quantified results through 2^−ΔΔCt analysis are shown in FIG. 12.

[10] = test system: human placenta-derived mesenchymal stem cells (PL-MSCs); assay: Adipogenesis induction, Oil Red O staining quantification
Protocol: as §1, §2
After inducing adipogenesis for 7, 14, and 21 days by treating human placenta-derived mesenchymal stem cells (PL-MSCs) with nervonic acid, the oil droplets stained by Oil Red O staining are shown in FIG. 9a, and the results of quantification of the stained oil droplets are shown in FIG. 9b.

[11] = 160 μM, 7, 14 and 21 days (all cases)

In the case of `CCCCCCCC/C=C\CCCCCCCCCCCCCC(=O)O` [nervonic acid], the “AKT phosphorylation ratio (activation indicator), fold increase compared to control group” value [1] is reported as 1.36±0.16 fold, the “B-catenin phosphorylation ratio (inactivation indicator), fold increase compared to control group” value [1] is reported as 1.39±0.06 fold and the “mTOR phosphorylation ratio (activation indicator), fold increase compared to control group” value [1] is reported as 1.34±0.14 fold. The “Oil Red O stained oil droplets, fold increase compared to DMSO control group” value [2, 11] was no less than 2 fold, the “Oil Red O stained oil droplets, fold increase compared to DMSO control group” value ([2]; 160 μM, day 21 (greatest)) was 5.61±0.23 fold and the “Adiponectin protein expression, fold increase compared to control group” value [3] was 2.35±0.55 fold. The “C/EBPA protein expression, fold increase compared to control group” value [3] was 1.37±0.08 fold, the “LPL protein expression, fold increase compared to control group” value [3] was 1.53±0.15 fold and the “PPARγ protein expression, fold increase compared to control group” value [3] was 2.34±0.69 fold. For the same compound, the “adipogenesis (Oil Red O) compared to DMSO control group” value [4] was “slightly increased”, the “Oil Red O stained oil droplets, fold increase compared to DMSO-treated control group” value ([5]; 7 days) was 2.13±0.27 fold and the “Oil Red O stained oil droplets, fold increase compared to DMSO-treated control group” value ([5]; 14 days) was 1.70±0.08 fold. For the same compound, the “Oil Red O stained oil droplets, fold increase compared to DMSO-treated control group” value ([5]; 21 days) was 1.27±0.14 fold, the “concentration at which adipogenesis was most effectively induced (Oil Red O quantification)” value ([5]; 7 days adipogenesis, 0-280 μM tested) was 160 µM and the “concentration at which oil droplets were observed” value [6] was no less than 160 µM. For the same compound, the “cell viability (cytotoxicity)” value ([7]; 72 hours (3 days)) was “no significant difference in cell viability”, the “cell viability (cytotoxicity)” value ([7]; 7 days) was “no significant difference in cell viability” and the “Oil Red O stained oil droplets, fold increase compared to DMSO control group” value [8, 11] was no less than 2 fold. For the same compound, the “Oil Red O stained oil droplets, fold increase compared to DMSO control group” value ([8]; 160 μM, day 21 (greatest)) was 3.87±0.06 fold, the “Adiponectin mRNA expression, fold increase compared to control group” value [9] was 1.37±0.19 fold and the “LPL mRNA expression, fold increase compared to control group” value [9] was 1.44±0.12 fold. For the same compound, the “PPARγ mRNA expression, fold increase compared to control group” value [9] was 1.74±0.35 fold, the “c/EBPa mRNA expression, fold increase compared to control group” value [9] was 1.66±0.22 fold and the “Oil Red O stained oil droplets, fold increase compared to DMSO control group” value [10, 11] was no less than 2 fold. For the same compound, the “Oil Red O stained oil droplets, fold increase compared to DMSO control group” value ([10]; 160 μM, day 21 (greatest)) was 9.22±0.15 fold.
